Measured values reported in patent US10793892B2, “Method for detecting the presence of expanded spectrum β-lactamase-producing bacteria in a sample” (INSERM (INSTITUT NATIONAL DE LA SANTE ET DE LA RECHERCHE …, priority 2011, dated 2020).

Key:
E. aerogenes [1] = test: Susceptibility testing, MIC by Etest; type: cell-based, Enterobacter aerogenes
Experimental: (§1) Susceptibility testing was performed by determining MIC values using the Etest® (AB bioMérieux; Solna, Sweden) on Mueller-Hinton agar plates at 37° C. and results were recorded according to US guidelines (CLSI), as updated in 2012 (2). The breakpoints for cefotaxime are susceptible (S)≤1 and resistant (R)≥4 μg/ml, and for ceftazidime S≤4 and R≥16 μg/ml.

S. marcescens = test: Susceptibility testing, MIC by Etest; type: cell-based, Serratia marcescens; settings: S. marcescens Wild-type, chromosome-encoded cephalosporinase, n=2
Experimental: as §1

P. mirabilis [2] = test: ESBL NDP test using spiked blood cultures; type: biochemical, Proteus mirabilis; design: key: (+) and (−) referred to color change being, red to yellow or unchanged, respectively; (+) and (−) referred to color change being, red to yellow or unchanged, respectively
Experimental: (§2) Strains were isolated on Mueller-Hinton agar (Biorad, Marnes-la-Coquette, France) and incubated at 37° C. for 16 h to 24 h before performing the NDP rapid ESBL test as follows. One calibrated inoculated loop (10 μl) of the tested strain was resuspended in 150 μl of 20 mM Tris-HCl lysis buffer previously distributed in Microbead tubes (Ultraclean Microbial DNA isolation kit Bead Tubes, MO BIO Laboratories, Carlsbad, USA). Mechanical lysis of bacteria was performed by strong agitation of Microbead tubes using a vortex adapter (MO BIO Laboratories) for 30 min at room temperature. This bacterial suspension was centrifuged at 10,000×g at room temperature for 5 min. Thirty μl of the supernatant was mixed in a well of a 96-well tray with 100 μl of a 1 ml solution made of 3 mg of purified cefotaxime sodium salt (Sigma-Aldrich, Saint-Quentin-Fallavier, France) in a pH 7.8 phenol red solution. […]. The phenol red solution was made by taking 2 ml of a concentrated pH 8 phenol solution (made from a mixture of phenol red 0.5% in distilled water) to which 16.6 ml of distilled water was added. The pH value was then adjusted to a 7.8 value by adding drops of a 1 N NaOH solution. Mixture of the phenol red solution and the enzymatic suspension being tested was incubated at 37° C. for 30 min. Similarly, culture extracts were analyzed in wells containing cefotaxime and tazobactam (4 mg/ml). Other concentrations of tazobactam and other ß-lactamase inhibitors were tested giving less clear results (data not shown). […] This definition of test positivity will be applied throughout the study.
Rapid detection of ESBL producers was attempted from spiked blood cultures which positivity was assessed using the BactAlert blood culture system (bioMérieux). […] This inoculum was reached after 24-48 h incubation in this BactAlert system. Strains were inoculated into blood culture system in presence of 10 ml of sterile blood. […] Spiked blood cultures were made of 1×10^3 CFU of each strain and incubated 24 to 48 h before a positivity of the blood culture was detected by the BactAlert system. […]

E. aerogenes [3] = test: ESBL NDP test using cultured strains; type: biochemical, Enterobacter aerogenes; design: key: (+) and (−) referred to color change being, red to yellow or unchanged, respectively; (+) and (−) referred to color change being, red to yellow or unchanged, respectively
Experimental: as §2

K. oxytoca = test: Susceptibility testing, MIC by Etest; type: cell-based, Klebsiella oxytoca; settings: K. oxytoca Wild-type penicillinase, n=1
Experimental: as §1

S. ficaria [4] = test: ESBL NDP test using spiked blood cultures; type: biochemical; design: key: (+) and (−) referred to color change being, red to yellow or unchanged, respectively; (+) and (−) referred to color change being, red to yellow or unchanged, respectively; settings: S. ficaria CIP 104255, Wild-type
Experimental: (§3) Strains were isolated on Mueller-Hinton agar (Biorad, Marnes-la-Coquette, France) and incubated at 37° C. for 16 h to 24 h before performing the NDP rapid ESBL test as follows. One calibrated inoculated loop (10 μl) of the tested strain was resuspended in 150 μl of 20 mM Tris-HCl lysis buffer previously distributed in Microbead tubes (Ultraclean Microbial DNA isolation kit Bead Tubes, MO BIO Laboratories, Carlsbad, USA). Mechanical lysis of bacteria was performed by strong agitation of Microbead tubes using a vortex adapter (MO BIO Laboratories) for 30 min at room temperature. This bacterial suspension was centrifuged at 10,000×g at room temperature for 5 min. Thirty μl of the supernatant was mixed in a well of a 96-well tray with 100 μl of a 1 ml solution made of 3 mg of purified cefotaxime sodium salt (Sigma-Aldrich, Saint-Quentin-Fallavier, France) in a pH 7.8 phenol red solution. […]. […] Similarly, culture extracts were analyzed in wells containing cefotaxime and tazobactam (4 mg/ml). […]
(§4) Rapid detection of ESBL producers was attempted from spiked blood cultures which positivity was assessed using the BactAlert blood culture system (bioMérieux). […] Spiked blood cultures were made of 1×10^3 CFU of each strain and incubated 24 to 48 h before a positivity of the blood culture was detected by the BactAlert system. […]

S. thyphimurium = test: ESBL NDP test using spiked blood cultures; type: biochemical; design: key: (+) and (−) referred to color change being, red to yellow or unchanged, respectively; (+) and (−) referred to color change being, red to yellow or unchanged, respectively; settings: S. thyphimurium 10.81, CTX-M-1
Experimental: as §3, §4

S. ficaria [5] = test: Susceptibility testing, MIC by Etest; type: cell-based; settings: S. ficaria Wild-type, chromosome-encoded cephalosporinase, n=1
Experimental: as §1

E. sakazakii = test: Susceptibility testing, MIC by Etest; type: cell-based; settings: overexpressed chromosome-encoded cephalosporinase, n=1
Experimental: as §1

C. brakii = test: Susceptibility testing, MIC by Etest; type: cell-based; settings: C. brakii Wild-type, chromosome-encoded cephalosporinase, n=1
Experimental: as §1

P. mirabilis [6] = test: Susceptibility testing, MIC by Etest; type: cell-based, Proteus mirabilis
Experimental: as §1

[7] = E. aerogenes Wild-type, chromosome-encoded cephalosporinase, n=1

CO/N=C(\C(=O)N[C@@H]1C(=O)N2C(C(=O)O)=C(COC(C)=O)CS[C@H]12)c1csc(N)n1 [CTX, cefotaxime]
MICs range (E. aerogenes [1]; E. aerogenes TEM-24, n=6): 0.5 to 8 µg/mL | MICs range (E. aerogenes [1]; E. aerogenes TEM-121, n=1): <0.06 µg/mL | MICs range (E. aerogenes [1]; [7]): 0.094 µg/mL | MICs range (S. marcescens): 0.19 to 0.75 µg/mL | ESBL NDP Test from: Blood culture (P. mirabilis [2]; P. mirabilis 09.128, TEM-52): + | ESBL NDP Test from: Blood culture (P. mirabilis [2]; P. mirabilis 09.177, TEM-21): + | ESBL NDP Test from: Blood culture (P. mirabilis [2]; P. mirabilis BIK, ACC-1): − | ESBL NDP Test from: Colonies (E. aerogenes [3]; E. aerogenes BN 1113 0225, Wild-type): − | ESBL NDP Test from: Colonies (E. aerogenes [3]; E. aerogenes E2O15, TEM-121): − | Test (color change) (E. aerogenes [3]; E. aerogenes TEM-24, n=6): − | Test (color change) (E. aerogenes [3]; E. aerogenes TEM-121, n=1): − | Test (color change) (E. aerogenes [3]; [7]): − | MICs range (K. oxytoca): 0.03 µg/mL | ESBL NDP Test from: Blood culture (S. ficaria [4]): − | ESBL NDP Test from: Blood culture (S. thyphimurium): + | MICs range (S. ficaria [5]): 0.12 µg/mL | MICs range (E. sakazakii): >16 µg/mL | MICs range (C. brakii): 0.12 µg/mL | MICs range (P. mirabilis [6]; P. mirabilis ACC-1, n=1): >16 µg/mL | MICs range (P. mirabilis [6]; P. mirabilis CTX-M-14, n=1): >16 µg/mL | MICs range (P. mirabilis [6]; P. mirabilis CTX-M-15, n=1): >16 µg/mL | MICs range (P. mirabilis [6]; P. mirabilis PER-1, n=1): >16 µg/mL | MICs range (P. mirabilis [6]; P. mirabilis TEM-21, n=1): 0.25 µg/mL | MICs range (P. mirabilis [6]; P. mirabilis TEM-52, n=1): >16 µg/mL
